Results taken from US20070142386A1, “New 2-substituted, 4-amino-thiazolo[4,5-d] pyrimidines, useful as chemokine receptor antagonists, esp. cx3cr1” (AstraZeneca, priority 2003, published 2007).
Values after ≈ are worked out from the molar mass of the structure shown. Like-named read-outs stand apart in the source and are kept apart here.

Columns and labels:
[1] = target: T1, human fractalkine receptor (hCX3CR1) (Homo sapiens, UniProt P49238); assay: Ligand binding assay (competition binding with [125I]-fractalkine on cell membranes)
T1 construct: expressed in transfected cells; host or cells: HEKS 293 (human embryonic kidney suspension) cells stably expressing the chimeric G-protein Gαqi5; Membranes were used in the assay
T1 sequence (P49238 1-355): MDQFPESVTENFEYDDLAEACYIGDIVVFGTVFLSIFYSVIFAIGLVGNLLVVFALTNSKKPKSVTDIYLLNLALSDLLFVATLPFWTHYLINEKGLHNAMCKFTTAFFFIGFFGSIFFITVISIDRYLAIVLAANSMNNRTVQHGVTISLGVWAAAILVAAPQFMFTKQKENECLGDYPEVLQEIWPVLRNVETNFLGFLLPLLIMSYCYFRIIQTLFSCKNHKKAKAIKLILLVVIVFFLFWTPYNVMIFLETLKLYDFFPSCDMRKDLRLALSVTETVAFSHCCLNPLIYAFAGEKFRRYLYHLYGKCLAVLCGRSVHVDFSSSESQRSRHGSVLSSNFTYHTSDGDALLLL
Description: Recombinant human fractalkine (hCX3CL1) was purchased from PeproTech Inc., UK. […] Fluo4-AM was purchased from Molecular Probes, US. All other chemicals were of analytical grade.
A stable clone was generated utilizing zeocin (500 μg/ml) and hygromycin (100 μg/ml) selection. For further applications the cells were maintained in Dulbecco's modified Eagle's medium/Ham's nutrient mix F12 (DMEMF12) containing pyridoxine and supplemented with 10% (v/v) fetal bovine serum, 2 mM L-glutamine, 100 U/ml penicillin and 100 mg/ml streptomycin, 250 μg/ml zeocin and 100 μg/ml hygromycin.
For the competition binding assay cells were harvested in buffer containing 10 mM Tris-HCl, pH 7.4, 5 mM ethylenediaminetetra-aceticacid (EDTA) and 0.1 mg/ml bacitracin (a protease inhibitor) and centrifuged at 300×g for 10 min. Cell pellets were then resuspended in harvesting buffer, pooled and homogenised using Dounce homogeniser. Cell membranes were centrifuged at 48000×g for 10 min and then resuspended in harvesting buffer using Ultra-Turrax T8 (IKA Labortechnik, Germany). […] Membrane aliquotes were stored at −70° C. […] MeltiLex solid scintillator (PerkinElmer LifeSciences,US) were melted onto filters and radioactivity was measured in a Wallac1205 Betaplate counter (PerkinElmer LifeScience, US).

[2] = Solubility assay (0.1M phosphate buffer, pH 7.4, 24 hours); assay type: physicochemical; conditions: 100 μM from DMSO stock in 0.1M phosphate buffer, pH 7.4, room temperature, upper limit 100 μM, LOQ 0.1 μM
Description: 100 μM Solutions in duplicate, prepared by dilution from a 10 mM DMSO stock solution of the test compound, were incubated in 0.1M phosphate buffer, pH 7.4, in a 96-well plate (PP plate, 350 μl U-shaped wells, COSTAR) on a plate bed shaker (IKA®-Schuttler MTS-4, IKA Labortechnik) at 300 rpm and room temperature (20-22° C.) for 24 hours.
The solutions were transferred to a MultiScreen™-R4 96-well filtration plate (LCR membrane, 0.4 μm hydrophilic PTFE, non-sterile glass-filled PP plate, 350 μl wells, Millipore) and filtered under vacuum to a 96-well collection plate (PP plate, 350 μl U-shaped wells, COSTAR), called the analyte plate, using Millipore Vacuum Manifold equipment. The analyte plate was covered by heat-sealing with an aluminium foil coated with a PP seal layer (AB-0813, pierceable sealing foil strong, ABgene).
LC-UV-MS analysis was performed using a generic LC method.
Single point quantification was performed against two 100 μM standards of the test compound dissolved in DMSO at the wavelength showing maximum UV absorbance as extracted from the DAD-trace (210-400 nm). The upper limit of the screen method is 100 μM with a LOQ of 0.1 μM.

[3] = 21 °C, aqueous buffer, kinetic from dmso stock

## CC(C)C[C@H](CO)Nc1nc([S+]([O-])Cc2cccc(F)c2F)nc2[nH]c(=O)sc12 (mixture of isomers) [Example 45, 5-[(2,3-Difluorobenzyl)-(RS,SS)-sulfinyl]-7-{[(1R)-1-(hydroxymethyl)-3-methylbutyl]amino}[1,3]thiazolo[4,5-d]pyrimidin-2(3H)-one]
[1]; 10 pM [125I]-fractalkine, membranes of HEKS 293 cells expressing hCX3CR1, 25° C., 24 h, read-out: Ki
  Ki: 38 nM
[2]; [3]
  solubility at 24 h: > 100 µM

## CC(C)C[C@H](CO)N(C)c1nc([S+]([O-])CCc2ccccc2Br)nc2nc(N)sc12 (mixture of isomers) [Example 13, (R)-2-[(2-Amino-5-{[2-(2-bromophenyl)ethyl]-(RS,SS)-sulfinyl}[1,3]thiazolo[4,5-d]pyrimidin-7-yl)(methyl)amino]-4-methylpentan-1-ol]
[2]
  solubility at 24 h: 33.8 µM (≈ 17.3 µg/mL)

## COc1cccc(COc2nc(N[C@@H](CO)CC(C)C)c3sc(N)nc3n2)c1 [Example 2, (2R)-2-({2-Amino-5-[(3-methoxybenzyl)oxy][1,3]thiazolo[4,5-d]pyrimidin-7-yl}amino)-4-methylpentan-1-ol]
[2]; [3]
  solubility at 24 h: 72.9 µM (≈ 29.4 µg/mL)

## CC(C)C[C@H](CO)Nc1nc(OCCc2ccccc2)nc2nc(N)sc12 [Example 3, (2R)-2-{[2-Amino-5-(2-phenylethoxy)[1,3]thiazolo[4,5-d]pyrimidin-7-yl]amino}-4-methylpentan-1-ol]
[2]; [3]
  solubility at 24 h: 63.6 µM (≈ 24.6 µg/mL)

## CC(C)CC(CO)Nc1nc([S+]([O-])Cc2cccc(F)c2F)nc2[nH]c(=O)cnc12 [Example 24, 2-[(2,3-Difluorobenzyl)-(RS,SS)-sulfinyl]-4-(1R)-1-(hydroxymethyl)-3-methylbutyl]amino}pteridin-7(8H)-one]
[2]; [3]
  solubility at 24 h: 44 µM (≈ 19.2 µg/mL)

## CC(C)C[C@H](CO)Nc1nc(OCc2ccccc2)[nH]c2nc(=O)sc1-2 [Example 25, 5-(Benzyloxy)-7-{[(1R)-1-(hydroxymethyl)-3-methylbutyl]amino}[1,3]thiazolo[4,5-d]pyrimidin-2(3H)-one]
[1]
  Ki: 44.6 nM
[2]; [3]
  solubility at 24 h: 29 µM (≈ 10.9 µg/mL)

## COc1cccc(COc2nc(N[C@@H](CO)CC(C)C)c3sc(=O)[nH]c3n2)c1 [Example 26, 7-{[(1R)-1-(Hydroxymethyl)-3-methylbutyl]amino}-5-[(3-methoxybenzyl)oxy][1,3]thiazolo[4,5-d]pyrimidin-2(3H)-one]
[2]; [3]
  solubility at 24 h: 78.5 µM (≈ 31.8 µg/mL)

## CC(C)C(CO)Nc1nc([S+]([O-])Cc2ccccc2)nc2[nH]c(=O)sc12 [Example 49, 5-[Benzyl-(RSSS)-sulfinyl]-7-{[(1R)-1-(hydroxymethyl)-2-methylpropyl]amino}[1,3]thiazolo[4,5-d]pyrimidin-2(3H)-one]
[2]; [3]
  solubility at 24 h: > 100 µM

## CC(C)C[C@H](CO)Nc1nc(SCc2cccc(F)c2F)nc2[nH]c(=O)cnc12 [drawing 17 X = S, 2-[(2,3-Difluorobenzyl)thio]-4-{[(1R)-1-(hydroxymethyl)-3-methylbutyl]amino}pteridin-7(8H)-one, reference compound]
[2]; [3]
  solubility at 24 h: 1.3 µM (≈ 0.548 µg/mL)

## CC(C)C[C@H](CO)Nc1nc(SCc2ccccc2)nc2[nH]c(=O)sc12 [drawing 18 X = S, 5-(Benzylthio)-7-{[(1R)-1-(hydroxymethyl)-3-methylbutyl]amino}[1,3]thiazolo[4,5-d]pyrimidin-2(3H)-one, reference compound]
[2]; [3]
  solubility at 24 h: 1.3 µM (≈ 0.508 µg/mL)

## CC(C)C[C@H](CO)Nc1nc(SCc2cccc(F)c2F)nc2[nH]c(=O)sc12 [drawing 20 X = S, 5-[(2,3-Difluorobenzyl)thio]-7-{[(1R)-1-(hydroxymethyl)-3-methylbutyl]amino}[1,3]thiazolo[4,5-d]pyrimidin-2(3H)-one, reference compound]
[2]; [3]
  solubility at 24 h: 2.1 µM (≈ 0.896 µg/mL)

## CC(C)[C@H](CO)Nc1nc(SCc2ccccc2)nc2[nH]c(=O)sc12 [drawing 21 X = S, 5-(Benzylthio)-7-{[(1R)-1-(hydroxymethyl)-2-methylpropyl]amino}[1,3]thiazolo[4,5-d]pyrimidin-2(3H)-one, reference compound]
[2]; [3]
  solubility at 24 h: 8.5 µM (≈ 3.2 µg/mL)
